The nature of data set [1]: Stability in liver microsomes (human). It is filed as in vitro ADME. How it is done: (3) Stability in microsomes. Isolated liver microsomes (from CD-1 male rats and human males) were used to evaluate the stability of the compound in microsomes in vitro. Ketanserin was used as a reference compound. A liver microsome solution (20 mg/mL) was added to a microcentrifuge tube containing PBS at 37° C. and the mixture was shaken for 10 min prior to assay. Then a DMSO solution (0.5 mM) containing the test compound was added. At 0 min, pre-cooled acetonitrile was added followed by an NADPH stock solution (6 mM). The plates were pre-incubated at 37° C. for 5 min. The timer started upon the addition of the NADPH stock solution (6 mM) to the plates. At 5 min, 15 min, 30 min and 45 min, pre-cooled acetonitrile was added to the wells of the respective plates to stop the reactions. After the reaction was quenched, the plates were shaken on a shaker for 10 min and then centrifuged at 5000 rpm for 15 min. The supernatant from each well was transferred to a 96-well sample plate containing ultrapure water for LC-MS/MS analysis.

Data set [2] has as its system IL-1β and IL-6 mRNA in RAW264.7 cells. Briefly: Real-time quantitative PCR of IL-1β and IL-6. In kind it is cell-based, mouse. The following applies: 20 ng/mL LPS 8 h.
The subject of data set [3] is RAW264.7 cells. Briefly: Antioxidant capacity assays (SOD, GSH-Px, GSH/GSSG, MPO). In kind it is cell-based, mouse. The source says:
Subsequently, to investigate the effect of pro2 on antioxidant capacity in inflammatory conditions, the activities of superoxide dismutase (SOD) and glutathione peroxidase (GPx) were examined. […] In addition, the GSH/GSSG ratio and myeloperoxidase (MPO) activity were also examined, which are two important markers indicating oxidative stress.

Data set [4] can be described thus: Stability in artificial gastric and intestinal fluids (SGF, SIF). It is filed as physicochemical. The note with it: after 8 h. As for the experimental part: (4) Stability in artificial gastric and intestinal fluids. Artificial gastric and intestinal fluids were purchased from commercial suppliers. Samples of prodrug (20 μM) were incubated in triplicate with artificial gastric or intestinal fluids at 37° C. for different periods of time. The enzyme protein was precipitated by adding methanol, and the samples were vortexed and then centrifuged at 5000 rpm for 5 min. The supernatants of the samples were analyzed by HPLC and the peak areas were recorded. All chromatographic conditions were as described above.

Data set [5] relates to Nrf2/ARE luciferase reporter in HepG2-ARE-C8 cells. Briefly: ARE-luciferase activity assay. The note with it: no LPS (physiological conditions). In kind it is cell-based. How it is done: HepG2-ARE-C8 cells were plated in a 96-well plate at a density of 4×10^4 cells/well and incubated overnight. The cells were then incubated with different concentrations of the test compound, with DMSO as a negative control and a luciferase cell lysis agent as a blank control. After 12 h of treatment, the medium was removed and 100 μL of pre-cooled PBS was added to each well to wash the cells. PBS was then removed and 30 μL of the luciferase cell lysis agent was added. After 15 min of lysis on ice, the cells were harvested and centrifuged, and 20 μL of the supernatant was taken for luciferase activity assay according to the protocol provided by the manufacturer (Promega, Madison, WI). The luciferase activity was measured by Luminoskan Ascent (Thermo Scientific, USA). The assay was performed in triplicate and the inductivity fold was calculated by comparing with the control.

Data set [6] concerns Nrf2-ARE in RAW264.7 cells. Briefly: ARE inductivity under LPS stimulation. In kind it is cell-based, mouse.
A short description of data set [7]: Aqueous solubility (pSOL). It is filed as physicochemical. As for the experimental part: Through Avdeef-Bucher potentiometric titration, pKa and partition coefficients (log D, pH 7.4) were determined on a Gemini Profiler instrument (pION) according to the method of Avdeef and Tsinman. pH measurements were used to determine the intrinsic solubility.
Potential solubility data were obtained with a pSOL model 3 instrument (pION INC, Cambridge, Massachusetts, USA). Cell membrane permeability was determined on a PAMPA Explorer instrument (pION).

For data set [8], the system named is RAW264.7 cells. Briefly: IL-1β, IL-6, TNF-α and NO assays in cell culture supernatant. In kind it is cell-based, mouse. How it is done: IL-1β (IL-1β (m) ELISA kit, EK0394, Boster), IL-18 (IL-18 (m) ELISA kit, EMC011, NeoBioscience), IL-6 (IL-6 (m) ELISA kit EK0411, Boster), TNF-α (TNF-α (m) ELISA kit, EK0527, Boster) and NO (nitrate/nitrite assay kit, S0023, Beyotime, China) were tested using commercially available kits according to the manufacturer's instructions.
Then, several inflammatory mediators closely related to ROS, including IL-1β, IL-6, TNF-α and NO, were further evaluated.

A further data set concerns C57BL/6 mice. Briefly: LPS-induced mouse acute inflammation model. It is filed as in vivo. The note with it: LPS 300 μg/kg mice. As for the experimental part: Female C57BL/6 mice (6-8 weeks old, 18-20 g in weight) were acclimatized with drinking water for 2 days, and were randomized to eight groups: (A) control group (n=3); (B) LPS (Sigma-Aldrich, St. Louis, No. L4130) model group (300 μg/kg/day, n=8); (C) LPS (300 μg/kg/day)+pro2 low-dose (10 mg/kg/day) group (n=8); (D) LPS (300 μg/kg/day)+pro2 high-dose (40 mg/kg/day) group (n=8); (E) LPS (300 μg/kg/day)+active parent compound 2 high-dose (40 mg/kg/day) group (n=8); (F) LPS (300 μg/kg/day)+dexamethasone low-dose (10 mg/kg/day) group (n=8); (G) pro2 high-dose (40 mg/kg/day) group (n=3); and (H) active parent compound 2 high-dose (40 mg/kg/day) group (n=3). Animals of groups A, G and H were given IP injections of 500 μL of normal saline each time (on days −3, −2 and −1). All LPS-stimulated mice were IP-injected with 500 μL of LPS (on days −3, −2 and −1), and 4 h after the injection the mice were given corresponding compound treatment (on days −3, −2 and −1). Animals were sacrificed (day 0) 24 h after the last dose of the compound to collect the serum, and the levels of cytokine IL-1β, IL-6, TNF-α and IFN-γ in the serum were determined by ELISA.

These results are taken from US12383535B2, “Hydrogen peroxide-responsive KEAP1-NRF2 ppi inhibitor prodrug, and preparation method therefor” (CHINA PHARMACEUTICAL UNIVERSITY, priority 2019, dated 2025).

For the compound `COc1ccc(S(=O)(=O)Nc2ccc(N(CC(=O)N3CCSC3=O)S(=O)(=O)c3ccc(OC)cc3)c3ccccc23)cc1` [pro2], the “stability in co-incubation with human liver microsomes” value in data set [1] is “very stable”. Further, the “mRNA transcription of IL-1β and IL-6” value in data set [2] is “significantly inhibit the induction by pro-inflammatory genes”. The “SOD and GSH-Px activity” value in the data set with RAW264.7 cells [3] (LPS 20 ng/mL) was “restored the SOD and GSH-Px activity significantly”. Besides, the “GSH/GSSG ratio and MPO activity” value in the data set on RAW264.7 cells [3] (LPS exposure) is recorded as “return markers to near normal”. In data set [4] (SGF), the “remaining in simulated gastric fluid (SGF)” value is over 50%. Moreover, the “remaining in simulated intestinal fluid (SIF)” value in data set [4] (SIF) was over 50%. In addition, the ARE inductivity result in data set [5] is “remained almost inactive even at the highest concentration”. For the same compound, the EC50 in data set [6] (Mus musculus, RAW264.7, under LPS stimulation, read-out: EC50 of ARE inductivity) was 320 nM; with RAW264.7 cells [8] (Mus musculus, LPS-stimulated RAW264.7 cells, read-out: EC50 for reduction of extracellular NO concentration) it was 120 nM. Besides, the “inductivity of Nrf2-ARE at different concentrations of LPS” value in data set [6] (RAW264.7 cells stimulated with LPS prior to administration, compound 200 nM) is reported as “LPS concentration-dependent increase”. Further, the “Aqueous solubility at pH 7.4” value in data set [7] came to 879.6 μg/mL. For the same compound, the “production of IL-1β, IL-6 and TNF-α in supernatant” value in the data set on RAW264.7 cells [8] (LPS-treated RAW264.7 cell culture) is “significant advantages in inhibiting production”. The “anti-inflammatory effect (serum IL-1β, IL-6, TNF-α, IFN-γ)” value is reported as “comparable therapeutic effect to dexamethasone” with C57BL/6 mice (compound 10 mg/kg) and “stronger effect” with C57BL/6 mice (compound high dose 40 mg/kg, oral).
